From PubChem BioAssay AID1963871 (Molecular Pharmacology Branch, DTP, NCI, 2024)

Tested on: KRAS-mutant PDC multicell tumor spheroid viability
Test: Anticancer human tumor 521955-158-R2-J5-PDC patient-derived pancreatic carcinoma cell line growth inhibition [KRAS2]
Details: for IC50: curve of first compound; for viability, T/C: stronger effect = lower value
Text: Multicellular complex tumor spheroid response to RAS pathway inhibitors in combination with a targeted agents in patient-derived cell lines with oncogenic KRAS variants from multiple cancer types
A high-throughput screen of multi-cell type tumor spheroids was designed to identify active combinations of targeted small molecules and KRAS pathway inhibitors. Complex spheroids include a stromal component modeled by human endothelial cells (HUVEC) and fibroblasts modeled by human mesenchymal stem cells (MSCs). The concentration ranges selected for each drug and investigational agent were based upon clinically achievable concentrations if the clinical Cmax of the agent was known.
Compounds. The drugs and investigational agents: BI-3406 (NSC825286), BAY-293 (NSC824723), batoprotafib (TNO155; NSC825523), sotorasib (AMG 510; NSC818433), MRTX1257 (NSC819558), elimusertib (BAY 1895344; NSC800525), molibresib (GSK525762; NSC774829), temuterkib (LY3214996; NSC803410), venetoclax (NSC766270), alisertib (NSC759677), olaparib (NSC753686), talazoparib (NSC767125), erdafitinib (NSC781556), ipatasertib (NSC767898), cabozantinib (NSC761068), nintedanib (NSC756659), abemaciclib (NSC768073), docetaxel (NSC628503), trametinib (NSC758246), and sapanisertib (NSC764658) were obtained from the National Cancer Institute (NCI) Developmental Therapeutics Program Chemical Repository. The FDA-approved anticancer drug set is available from the Developmental Therapeutics Program. […] The stock solutions were prepared in dimethyl sulfoxide (DMSO, Sigma-Aldrich, St. Louis, MO, cat. D2650) at 800-fold the tested concentration and stored at -70 degrees C prior to their use. All drugs and investigational agents were tested over a range starting from a high concentration at or near the clinical Cmax and decreasing in half-log increments. If the clinical Cmax for an agent had not been determined, the highest concentration tested was 10 microM.
Cell Culture. All cells were maintained in an incubator at 37 degrees C and 5% CO2 with 95% humidity. The PDC lines were cultured according to standard operating procedures established by the NCI PDMR (https://pdmr.cancer.gov/sops/default.htm). Briefly, all PDCs were thawed and cultured in Matrigel-coated flasks prepared with a working solution of 1X Ham's F-12 nutrient mix, without supplementation (Invitrogen, Waltham, MA, cat. 11765054), 100 U/mL penicillin-streptomycin (Invitrogen, cat. 15140122), and 2.5% Matrigel (Corning Inc., Corning, NY, cat. 354248) for the first three passages. All PDCs were cultured in complete DMEM/F-12 media containing advanced DMEM/F-12 (Invitrogen, cat. 12634028), 4.9% defined fetal bovine serum, heat inactivated (HyClone Laboratories Inc., Logan, UT, cat. SH30070.03HI), 389 ng/mL hydrocortisone (Sigma-Aldrich, cat. H4001), 9.7 ng/mL human EGF recombinant protein (Invitrogen, cat. PHG0313), 23.4 microg/mL adenine (Sigma-Aldrich, cat. A2786), 97.3 U/mL penicillin-streptomycin (Invitrogen, cat. 15140122), 1.9 mM L-glutamine (Invitrogen, cat. 25030081), and 9.7 microM Y-27632 dihydrochloride (Tocris Bioscience, Bristol, United Kingdom, cat. 1254). The PDCs were cultured in complete DMEM/F12 media without 9.7 microM Y-27632 dihydrochloride for at least two passages prior to the screen. The established cell line HOP-62 was cultured in RPMI 1640 medium, HEPES (Invitrogen, cat. 22400105) with 10% defined fetal bovine serum (HyClone Laboratories Inc., cat. SH30070.03) and 2 mM L-glutamine (Invitrogen, cat. 25030081). The pooled donor HUVEC were cultured in endothelial cell growth medium 2 (PromoCell, Heidelberg, Germany, cat. C-22011) and the hMSC were cultured in mesenchymal stem cell growth medium 2 (PromoCell, cat. C-28009). For all experiments, HUVEC and hMSC were used at passages </=5, while the malignant cell lines were used at passages </=15. […]

[1] = second compound 0.1 µM, first compound 0.0316 µM
[2] = second compound 0.1 µM, first compound 0.1 µM
[3] = second compound 0.1 µM, first compound 0.316 µM
[4] = second compound 0.1 µM, first compound 1 µM
[5] = second compound 0.316 µM, first compound 0.0316 µM
[6] = second compound 0.316 µM, first compound 0.1 µM
[7] = second compound 0.316 µM, first compound 0.316 µM
[8] = second compound 0.316 µM, first compound 1 µM
[9] = second compound 1 µM, first compound 0.0316 µM
[10] = second compound 1 µM, first compound 0.1 µM
[11] = second compound 1 µM, first compound 0.316 µM
[12] = second compound 1 µM, first compound 1 µM
[13] = second compound 3.16 µM, first compound 0.0316 µM
[14] = second compound 3.16 µM, first compound 0.1 µM
[15] = second compound 3.16 µM, first compound 0.316 µM
[16] = second compound 3.16 µM, first compound 1 µM
[17] = second compound 10 µM, first compound 0.0316 µM
[18] = second compound 10 µM, first compound 0.1 µM
[19] = second compound 10 µM, first compound 0.316 µM
[20] = second compound 10 µM, first compound 1 µM
[21] = second compound 0.1 µM, first compound 0.00316 µM
[22] = second compound 0.1 µM, first compound 0.01 µM
[23] = second compound 0.316 µM, first compound 0.00316 µM
[24] = second compound 0.316 µM, first compound 0.01 µM
[25] = second compound 1 µM, first compound 0.00316 µM
[26] = second compound 1 µM, first compound 0.01 µM
[27] = second compound 3.16 µM, first compound 0.00316 µM
[28] = second compound 3.16 µM, first compound 0.01 µM
[29] = second compound 10 µM, first compound 0.00316 µM
[30] = second compound 10 µM, first compound 0.01 µM
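Note: viability read after seven days of drug exposure.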

SMILES	IC50 (second compound 0.1 µM) [nM]	IC50 (second compound 0.316 µM) [nM]	IC50 (second compound 1 µM) [nM]	IC50 (second compound 3.16 µM) [nM]	IC50 (second compound 10 µM) [nM]	viability, T/C [1] [%]	viability, T/C [2] [%]	viability, T/C [3] [%]	viability, T/C [4] [%]	viability, T/C [5] [%]	viability, T/C [6] [%]	viability, T/C [7] [%]	viability, T/C [8] [%]	viability, T/C [9] [%]	viability, T/C [10] [%]	viability, T/C [11] [%]	viability, T/C [13] [%]	viability, T/C [14] [%]	viability, T/C [17] [%]	viability, T/C [18] [%]	further results
CC(C)NCC(C(=O)N1CCN(c2ncnc3c2C(C)CC3O)CC1)c1ccc(Cl)cc1 (centres undefined) + C=CC(=O)N1CCN(c2nc(=O)n(-c3c(C)ccnc3C(C)C)c3nc(-c4c(O)cccc4F)c(F)cc23)C(C)C1	> 10000	> 10000	> 10000	293	134	102	105	77.7	78	116	100	74.4	64.4	106	94.9	64.1	94.8	82.8	69.5	56.2	viability, T/C (second compound 0.1 µM, first compound 3.16 µM): 76.5%; viability, T/C (second compound 0.1 µM, first compound 10 µM): 67%; viability, T/C (second compound 0.316 µM, first compound 3.16 µM): 65.3%; viability, T/C (second compound 0.316 µM, first compound 10 µM): 58.6%; viability, T/C [12]: 54.5%; viability, T/C (second compound 1 µM, first compound 3.16 µM): 58.2%; viability, T/C (second compound 1 µM, first compound 10 µM): 53.2%; viability, T/C [15]: 46.5%; viability, T/C [16]: 43.2%; viability, T/C (second compound 3.16 µM, first compound 10 µM): 31%; viability, T/C [19]: 32.1%; viability, T/C [20]: 19.7%; viability, T/C (second compound 10 µM, first compound 3.16 µM): 19.2%; viability, T/C (second compound 10 µM, first compound 10 µM): 13.2%
CCN1CCN(Cc2ccc(Nc3ncc(F)c(-c4cc(F)c5nc(C)n(C(C)C)c5c4)n3)nc2)CC1 + C=CC(=O)N1CCN(c2nc(=O)n(-c3c(C)ccnc3C(C)C)c3nc(-c4c(O)cccc4F)c(F)cc23)C(C)C1	> 1000	> 1000	> 1000	> 1000	> 1000	110	100	122	97.2	91.1	101	117	109	94.5	95.5	113	91.8	80.5	89.4	74.6	viability, T/C [21]: 113%; viability, T/C [22]: 100%; viability, T/C [23]: 114%; viability, T/C [24]: 108%; viability, T/C [25]: 112%; viability, T/C [26]: 108%; viability, T/C [12]: 96.7%; viability, T/C [27]: 89.2%; viability, T/C [28]: 99.4%; viability, T/C [15]: 88.4%; viability, T/C [16]: 88.8%; viability, T/C [29]: 81%; viability, T/C [30]: 88.3%; viability, T/C [19]: 66.7%; viability, T/C [20]: 50.7%
Cn1ncnc1[C@H]1c2n[nH]c(=O)c3cc(F)cc(c23)N[C@@H]1c1ccc(F)cc1 + C=CC(=O)N1CCN(c2nc(=O)n(-c3c(C)ccnc3C(C)C)c3nc(-c4c(O)cccc4F)c(F)cc23)C(C)C1	> 100	> 100	> 100	> 100	> 100	87.2	79.3	–	–	82.6	86.3	–	–	83.3	68.2	–	66.4	61.9	59.8	57.7	viability, T/C (second compound 0.1 µM, first compound 0.000316 µM): 104%; viability, T/C (second compound 0.1 µM, first compound 0.001 µM): 106%; viability, T/C [21]: 89.6%; viability, T/C [22]: 96.3%; viability, T/C (second compound 0.316 µM, first compound 0.000316 µM): 109%; viability, T/C (second compound 0.316 µM, first compound 0.001 µM): 108%; viability, T/C [23]: 103%; viability, T/C [24]: 80.6%; viability, T/C (second compound 1 µM, first compound 0.000316 µM): 103%; viability, T/C (second compound 1 µM, first compound 0.001 µM): 107%; viability, T/C [25]: 96.6%; viability, T/C [26]: 85.9%; viability, T/C (second compound 3.16 µM, first compound 0.000316 µM): 95.5%; viability, T/C (second compound 3.16 µM, first compound 0.001 µM): 89.8%; viability, T/C [27]: 97.7%; viability, T/C [28]: 75.2%; viability, T/C (second compound 10 µM, first compound 0.000316 µM): 63.9%; viability, T/C (second compound 10 µM, first compound 0.001 µM): 67.8%; viability, T/C [29]: 60.9%; viability, T/C [30]: 59.6%
